Here are results for 40 molecules from EP2818472A1, “Imidazo[4,5-c]pyridine and pyrrolo[3,2-c]pyridine compounds as G-protein-coupled receptor kinase 5 (GRK5) modulators” (Max-Planck-Gesellschaft zur Förderung der Wissenschaften …, priority 2013, dated 2014).

Where only a bound is given, the exact number is not on record here.

The experiment deals with beta-TC6 cells. Nature of the experiment: Insulin HTRF assay (relative activity Ar) in beta-TC6 cells. In kind it is cell-based, mouse. As to conditions: Mus musculus, Beta-TC6, 4 h, insulin HTRF, supernatant of beta-TC6 cells, incubation with test compound at 37°C for 2, 3, 4h; read-out: Ar (relative activity). The gist of the method: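 beta-TC6 cells (15k/well, seeded 24 or 48 h) washed, then exposed to compound in induction buffer (0.5% DMSO final) for 2, 3 or 4 h at 37°C.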
Turning to `CNc1nc2cnc(-c3ccc(O)c(OC)c3)cc2n1Cc1ccc(OC)c(OC)c1` [Compound 879, 4-[1-[(3,4-dimethoxyphenyl)methyl]-2-(methylamino)imidazo[4,5-c]pyridin-6-yl]-2-methoxy-phenol], the Emax was 30 to 50%.

Take `COc1ccccc1-c1cc2c(Nc3ccc(S(C)(=O)=O)cc3)nccc2[nH]1` [Compound 300, 2-(2-methoxyphenyl)-N-(4-methylsulfonylphenyl)-1H-pyrrolo[3,2-c]pyridin-4-amine]: the Emax was 50 to 100%.

Regarding `CNc1nc2cnc(Nc3cccc(N(C)C)c3)cc2n1-c1cccc(F)c1` [Compound 682, N6-[3-(dimethylamino)phenyl]-1-(3-fluorophenyl)-N2-methyl-imidazo[4,5-c]pyridine-2,6-diamine], the Emax fell in the range of 50 to 100%.

As to `Cn1c(-c2cccnc2)cc2cnc(N3CCOCC3)cc21` [Compound 94, 4-[1-methyl-2-(3-pyridyl)pyrrolo[3,2-c]pyridin-6-yl]morpholine], the Emax is 30 to 50%.

Turning to `CN(C)c1cccc(Nc2cc3c(cn2)nc(NCc2ccccc2)n3C)c1` [Compound 619, N2-benzyl-N6-[3-(dimethylamino)phenyl]-1-methyl-imidazo[4,5-c]pyridine-2,6-diamine], the Emax lay in the range of 50 to 100%.

In the case of `COc1cncc(-c2cc3c(cn2)nc(-c2ccco2)n3C)c1` [Compound 764, 2-(2-furyl)-6-(5-methoxy-3-pyridyl)-1-methyl-imidazo[4,5-c]pyridine], the Emax lay in the range of 0 to 30%.

On to `COc1cccc(-c2nc3c(Nc4ccc(F)c(Cl)c4)nccc3[nH]2)c1F` [Compound 474, N-(3-chloro-4-fluoro-phenyl)-2-(2-fluoro-3-methoxy-phenyl)-1H-imidazo[4,5-c]pyridin-4-amine], for which the Emax was in the range of 30 to 50%.

For the molecule `CN(C)c1ccc(-c2cc3c(cn2)nc(NCc2ccccc2)n3C)cc1` [Compound 615, N-benzyl-6-(4-dimethylaminophenyl)-1-methyl-imidazo[4,5-c]pyridin-2-amine], the Emax was greater than 100%.

On to `CC(=O)Nc1ccc(Nc2cc3c(cn2)nc(-c2cccc(F)c2)n3C)cc1` [Compound 713, N-[4-[[2-(3-fluorophenyl)-1-methyl-imidazo[4,5-c]pyridin-6-yl]amino]phenyl]acetamide], for which the Emax lay in the range of 50 to 100%.

With `COCCCNc1nccc2[nH]c(-c3ccc(OC)cc3)nc12` [Compound 401, 2-(4-methoxyphenyl)-N-(3-methoxypropyl)-1H-imidazo[4,5-c]pyridin-4-amine], the Emax fell in the range of 30 to 50%.

For the molecule `Cn1c(NCc2ccccc2)nc2cnc(-c3ccc(N)nc3)cc21` [Compound 625, 6-(6-amino-3-pyridyl)-N-benzyl-1-methyl-imidazo[4,5-c]pyridin-2-amine], the Emax was greater than 100%.

`COc1cc(Nc2cc3[nH]c(-c4ccc(C(=O)N(C)C)cc4)cc3cn2)cc(OC)c1OC` [Compound 18, N,N-dimethyl-4-[6-(3,4,5-trimethoxyanilino)-1H-pyrrolo[3,2-c]pyridin-2-yl]benzamide]: the Emax lay within 50 to 100%.

As to `COc1ccc(Nc2nccc3[nH]c(-c4cccc(F)c4)nc23)cc1OC` [Compound 404, N-(3,4-dimethoxyphenyl)-2-(3-fluorophenyl)-1H-imidazo[4,5-c]pyridin-4-amine], the Emax was greater than 100%.

For the molecule `Cc1cccc(Nc2nccc3c2cc(-c2cccnc2)n3C)c1` [Compound 241, 1-methyl-N-(m-tolyl)-2-(3-pyridyl)pyrrolo[3,2-c]pyridin-4-amine], the Emax fell in the range of 0 to 30%.

For the molecule `COc1ccc(Nc2nccc3[nH]c(-c4cccnc4)cc23)cn1` [Compound 233, N-(6-methoxy-3-pyridyl)-2-(3-pyridyl)-1H-pyrrolo[3,2-c]pyridin-4-amine], the Emax fell in the range of 50 to 100%.

For `COC(=O)c1ccc(Nc2cc3c(cn2)cc(-c2cnn(C)c2)n3C)cc1` [Compound 141, methyl 4-[[1-methyl-2-(1-methylpyrazol-4-yl)pyrrolo[3,2-c]pyridin-6-yl]amino]benzoate], the Emax lay within 50 to 100%.

Take `COc1ccc(Nc2nccc3[nH]c(-c4ccc(C)cc4)nc23)cc1` [Compound 382, N-(4-methoxyphenyl)-2-(p-tolyl)-1H-imidazo[4,5-c]pyridin-4-amine]: the Emax is 30 to 50%.

Take `COc1cc(Nc2cc3[nH]c(-c4ccccc4)cc3cn2)cc(OC)c1OC` [Compound 174, 2-phenyl-N-(3,4,5-trimethoxyphenyl)-1H-pyrrolo[3,2-c]pyridin-6-amine]: the Emax lay within 50 to 100%.

In the case of `Fc1cccc(-c2cc3cnc(Nc4ccc(F)c(Cl)c4)cc3[nH]2)c1` [Compound 9, N-(3-chloro-4-fluoro-phenyl)-2-(3-fluorophenyl)-1H-pyrrolo[3,2-c]pyridin-6-amine], the Emax lay in the range of 0 to 30%.

`CN(C)c1cccc(Nc2cc3c(cn2)cc(-c2cnn(C)c2)n3C)c1` [Compound 134, N1,N1-dimethyl-N3-[1-methyl-2-(1-methylpyrazol-4-yl)pyrrolo[3,2-c]pyridin-6-yl]benzene-1,3-diamine]: the Emax was in the range of 50 to 100%.

With `CNc1nc2cnc(Nc3cc(OC)c(OC)c(OC)c3)cc2n1-c1cccc(F)c1` [Compound 679, 1-(3-fluorophenyl)-N2-methyl-N6-(3,4,5-trimethoxyphenyl)imidazo[4,5-c]pyridine-2,6-diamine], the Emax fell in the range of 50 to 100%.

Take `Cn1c(-c2ccccc2)cc2c(Nc3cccc(O)c3)nccc21` [Compound 328, 3-[(1-methyl-2-phenyl-pyrrolo[3,2-c]pyridin-4-yl)amino]phenol]: the Emax was 30 to 50%.

In the case of `COc1ccc(Nc2cc3c(cn2)cc(-c2cccnc2)n3C)cc1OC` [Compound 85, N-(3,4-dimethoxyphenyl)-1-methyl-2-(3-pyridyl)pyrrolo[3,2-c]pyridin-6-amine], the Emax fell in the range of 50 to 100%.

For `CNc1nc2cnc(Nc3ccc(OC)c(O)c3)cc2n1Cc1ccccc1` [Compound 536, 5-[[1-benzyl-2-(methylamino)imidazo[4,5-c]pyridin-6-yl]amino]-2-methoxy-phenol], the Emax lay within 50 to 100%.

As to `COc1cc(Nc2cc3c(cn2)nc(C)n3C)cc(OC)c1OC` [Compound 697, 1,2-dimethyl-N-(3,4,5-trimethoxyphenyl)imidazo[4,5-c]pyridin-6-amine], the Emax fell in the range of 50 to 100%.

Consider `COc1cc(Nc2cc3c(cn2)nc(NCC2CCCO2)n3C)cc(OC)c1OC` (stereo not shown) [Compound 641, 1-methyl-N2-(tetrahydrofuran-2-ylmethyl)-N6-(3,4,5-trimethoxyphenyl)imidazo[4,5-c]pyridine-2,6-diamine], for which the Emax fell in the range of 30 to 50%.

In the case of `CNc1nc2cnc(Nc3cccc(OC(C)C)c3)cc2n1Cc1ccc(OC)c(OC)c1` [Compound 676, 1-[(3,4-dimethoxyphenyl)methyl]-N6-(3-isopropoxyphenyl)-N2-methyl-imidazo[4,5-c]pyridine-2,6-diamine], the Emax was in the range of 30 to 50%.

Take `CNc1nc2cnc(Nc3cccc(O)c3)cc2n1Cc1ccccc1` [Compound 535, 3-[[1-benzyl-2-(methylamino)imidazo[4,5-c]pyridin-6-yl]amino]phenol]: the Emax fell in the range of 50 to 100%.

`Cc1cccc(CNc2nc3cnc(Nc4cccc(NS(C)(=O)=O)c4)cc3n2C)c1` [Compound 587, N-[3-[[1-methyl-2-(m-tolylmethylamino)imidazo[4,5-c]pyridin-6-yl]amino]phenyl]methanesulfonamide]: the Emax lay in the range of 50 to 100%.

As for `COc1ncccc1-c1cc2c(cn1)nc(NCc1cccc(C)c1)n2C` [Compound 586, 6-(2-methoxy-3-pyridyl)-1-methyl-N-(m-tolylmethyl)imidazo[4,5-c]pyridin-2-amine], the Emax is 30 to 50%.

Regarding `COc1ccc(Nc2nccc3[nH]c(-c4cccc(OC)c4F)nc23)cc1O` [Compound 479, 5-[[2-(2-fluoro-3-methoxy-phenyl)-1H-imidazo[4,5-c]pyridin-4-yl]amino]-2-methoxy-phenol], the Emax was greater than 100%.

For the molecule `COc1cc(Nc2cc3c(cn2)cc(-c2cccnc2)n3C)cc(OC)c1OC` [Compound 82, 1-methyl-2-(3-pyridyl)-N-(3,4,5-trimethoxyphenyl)pyrrolo[3,2-c]pyridin-6-amine], the Emax lay within 50 to 100%.

For the molecule `CN(C)C(=O)c1ccc(Nc2cc3c(cn2)cc(-c2cccnc2)n3C)cc1` [Compound 95, N,N-dimethyl-4-[[1-methyl-2-(3-pyridyl)pyrrolo[3,2-c]pyridin-6-yl]amino]benzamide], the Emax lay in the range of 50 to 100%.

As to `COc1cc(Nc2cc3c(cn2)nc(Cc2cccnc2)n3C)cc(OC)c1OC` [Compound 729, 1-methyl-2-(3-pyridylmethyl)-N-(3,4,5-trimethoxyphenyl)imidazo[4,5-c]pyridin-6-amine], the Emax is 30 to 50%.

As for `COc1cc(OC)cc(-c2cc3c(Nc4ccc(C(N)=O)cc4)nccc3[nH]2)c1` [Compound 290, 4-[[2-(3,5-dimethoxyphenyl)-1H-pyrrolo[3,2-c]pyridin-4-yl]amino]benzamide], the Emax fell in the range of 50 to 100%.

Turning to `Cn1c(-c2cccnc2)cc2c(Nc3cccc(NS(C)(=O)=O)c3)nccc21` [Compound 244, N-[3-[[1-methyl-2-(3-pyridyl)pyrrolo[3,2-c]pyridin-4-yl]amino]phenyl]methanesulfonamide], the Emax lay within 50 to 100%.

As to `CNc1nc2cnc(-c3ccc4ccccc4c3)cc2n1Cc1ccc(OC)c(OC)c1` [Compound 668, 1-[(3,4-dimethoxyphenyl)methyl]-N-methyl-6-(2-naphthyl)imidazo[4,5-c]pyridin-2-amine], the Emax lay within 50 to 100%.

As for `COc1ccc(Nc2nccc3[nH]c(-c4ccsc4)cc23)cc1OC` [Compound 253, N-(3,4-dimethoxyphenyl)-2-(3-thienyl)-1H-pyrrolo[3,2-c]pyridin-4-amine], the Emax fell in the range of 50 to 100%.

As for `Cc1cccc(Nc2cc3[nH]c(-c4cncn4C)cc3cn2)c1` [Compound 105, 2-(3-methylimidazol-4-yl)-N-(m-tolyl)-1H-pyrrolo[3,2-c]pyridin-6-amine], the Emax is 50 to 100%.

As to `COCCNc1nc2cnc(-c3ccc4c(c3)OCO4)cc2n1C` [Compound 759, 6-(1,3-benzodioxol-5-yl)-N-(2-methoxyethyl)-1-methyl-imidazo[4,5-c]pyridin-2-amine], the Emax lay within 0 to 30%.
